According to article PMC11816722, “GATA3-Driven ceRNA Network in Lung Adenocarcinoma Bone Metastasis Progression and Therapeutic Implications” (Cancers, 2025):

Target: T1, NPRL3 (Homo sapiens, UniProt Q12980)
T1 sequence (Q12980 1-569): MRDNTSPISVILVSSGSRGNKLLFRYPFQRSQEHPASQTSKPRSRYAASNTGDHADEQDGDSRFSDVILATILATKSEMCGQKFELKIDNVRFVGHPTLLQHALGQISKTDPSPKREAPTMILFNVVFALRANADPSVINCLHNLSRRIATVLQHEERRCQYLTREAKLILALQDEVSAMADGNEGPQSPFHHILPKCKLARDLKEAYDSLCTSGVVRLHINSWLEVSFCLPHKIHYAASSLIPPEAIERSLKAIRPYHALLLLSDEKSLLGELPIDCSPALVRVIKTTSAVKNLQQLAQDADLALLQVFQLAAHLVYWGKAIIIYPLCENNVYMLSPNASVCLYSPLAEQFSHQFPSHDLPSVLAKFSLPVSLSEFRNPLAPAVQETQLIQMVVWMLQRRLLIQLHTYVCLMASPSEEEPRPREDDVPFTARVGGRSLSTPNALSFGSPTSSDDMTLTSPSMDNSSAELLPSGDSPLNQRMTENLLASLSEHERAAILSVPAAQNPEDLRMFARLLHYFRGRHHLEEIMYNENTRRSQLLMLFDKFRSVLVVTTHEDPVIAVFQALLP
Test: SPR (Biacore T200, immobilized recombinant NPRL3, steady-state […] fit); supported by DARTS in A549L6 lysate
Format: binding

How did the Kd turn out when `O=c1[nH]nc2c3c(cccc13)N=C(CN1Cc3ccccc3C1)N2` [E7449] was run?
The Kd was 11.8 µM.
